From EP0345751A1, “Anti-retroviral diflourinated nucleosides” (MERRELL DOW PHARMACEUTICALS INC., priority 1988, dated 1989)

Tested on: Moloney murine leukemia virus (MoLV)
Assay: in vitro XC plaque assay (inhibition of growth and replication of murine leukemia virus in mouse SC-1 cells)
Assay type: cell-based
Conditions: compound added 2 hours prior to virus; for Average No. of Foci/plate: Control 36 foci/plate
Protocol: This assay was performed according to the method of Rowe et al. (Virology, 1970, 42, 1136-39) as previously described by L. Hsu, et al. (J. Virological Methods, 1980, 1, 167-77) and T. L. Bowlin and M. R. Proffitt (J. Interferon Res., 1983, 3(1), 19-31). Mouse SC-1 cells (fibroblast) (10⁵) were seeded into each well of 6-well cluster plates (Costar #3506) in 4 ml Minimum Essential Medium (MEM) with 10% Fetal Calf Serum (FCS). Following an 18 hour incubation period (37°C), Moloney murine leukemia virus (MoLV) was applied at a predetermined titer to give optimal (i.e. countable) numbers of virus plaques. Compounds were added 2 hours prior to addition of the virus. Three days later the culture medium was removed, the SC-1 cell monolayers were exposed to UV irradiation (1800 ergs), and rat XC cells […] were seeded into each well in 4 ml MEM. Following an additional 3 day incubation (37°C), these cells were fixed with ethyl alcohol (95%) and stained with 0.3% crystal violet. Plaques were then counted under low magnification.

Structure (SMILES)	Average No. of Foci/plate (Concentration 0.0025 µg/ml)	Average No. of Foci/plate (Concentration 0.005 µg/ml)	Average No. of Foci/plate (Concentration 0.01 µg/ml)	Average No. of Foci/plate (Concentration 0.1 µg/ml)	inhibition at 0.0025 µg/mL (Murine leukemia virus, SC1, Concentration 0.0025 µg/ml)	inhibition at 0.005 µg/mL (Murine leukemia virus, SC1, Concentration 0.005 µg/ml)	inhibition at 0.01 µg/mL (Murine leukemia virus, SC1, Concentration 0.01 µg/ml)	inhibition at 0.1 µg/mL (Murine leukemia virus, SC1, Concentration 0.1 µg/ml)	Average No. of Foci/plate (Concentration 0.001 µg/ml)	inhibition at 0.001 µg/mL (Murine leukemia virus, SC1, Concentration 0.001 µg/ml)
Nc1ccn([C@@H]2O[C@H](CO)[C@@H](O)C2(F)F)c(=O)n1 [2′-Deoxy-2′,2′-Difluorocytidine, 2′-deoxy-2′,2′-difluorocytidine]	28	15	0	0	22%	58%	100%	100%	–	–
Cc1cn([C@H]2C[C@H](N=[N+]=[N-])[C@@H](CO)O2)c(=O)[nH]c1=O [AZT, 3′-azido-3′-deoxythymidine, reference compound]	–	–	–	–	–	–	–	–	18	50%
